Data: PubChem BioAssay AID489024 (Sanford-Burnham Center for Chemical Genomics, 2010)
Calls of active or inactive are those of the source.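 Rule for the calls: active = compounds whose mean EC50, the dose giving half the maximal reporter activation, is at or below a set limit; inactive = the rest.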

Target: CHO-CHOP luciferase reporter, UPR activation, luminescence
Experiment: activators of PERK-eIF2a-CHOP UPR arm, confirmation, CHO-CHOP cells, luciferase luminescence (AID 489024);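 note: compounds added alone to reporter cells with no tunicamycin stress co-treatment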

Oc1ccc(/C=N/Nc2ncnc3c2ncn3Cc2ccccc2)cc1O
EC50: 13.1 µM

C=CCN=c1scc(-c2ccco2)n1/N=C/c1ccc(O)c(O)c1O
EC50: inactive

O=C(N/N=C/c1ccccn1)c1cc(-c2ccccc2)nc2ccccc12
EC50: 5.91 µM

O=C(N/N=C/c1ccc(O)c(O)c1)NC12CC3CC(CC(C3)C1)C2
EC50: 3.34 µM

Oc1c(N=Nc2ccccn2)ccc2ccccc12
EC50: 6.46 µM

O=[N+]([O-])c1ccc(C=Nc2ccc(Cl)cc2Cl)s1
EC50: 13.9 µM

CCOc1cc(C=C(C(=O)OC)C(=O)OC)ccc1OCc1ccc([N+](=O)[O-])cc1
EC50: 6.82 µM

COc1ccc(-c2cc3ccccc3oc2=O)cc1NC(=S)NC(=O)c1ccc2c(c1)OCCO2
EC50: 14.9 µM

CC(C)c1ccc(NC(=O)/C(C#N)=C/c2ccncc2)cc1
EC50: 13.6 µM

O=C(CN1CCN(c2ccccc2F)CC1)c1ccc(O)c(O)c1
EC50: inactive

COCCN=c1scc(-c2cccs2)n1/N=C/c1ccc(O)c(O)c1O
EC50: inactive

O=C(CSc1nc2ccc(Nc3nc(N4CCOCC4)nc(N4CCOCC4)n3)cc2s1)Nc1ccccc1F
EC50: 14.7 µM

Cc1c(NC(=O)CSc2cccc3cccnc23)c(=O)n(-c2ccccc2)n1C
EC50: 6.53 µM

COCc1cc(C)nc(OCC(=O)N/N=C/c2ccc(-c3cc([N+](=O)[O-])ccc3Cl)o2)c1C#N
EC50: 14.3 µM

CCc1ccc2nc(N(CCCN(C)C)C(=O)c3ccc(S(=O)(=O)N4CCc5ccccc5C4)cc3)sc2c1
EC50: 7.12 µM

CC(=O)Nc1ccc(N=Cc2c(O)c(C(=O)Nc3ccccc3)cc3ccccc23)cc1
EC50: inactive

Cc1nc2ccccc2n1-c1nc(-c2ccco2)cc(C(F)(F)F)n1
EC50: 6.76 µM

Cc1nn(Cc2c(Cl)cccc2Cl)c(C)c1NC(=O)c1sc2ccccc2c1Cl
EC50: inactive

O=C(Nc1ccc2oc(-c3ccncc3)nc2c1)c1ccc([N+](=O)[O-])o1
EC50: 0.82 µM

N#Cc1cc([N+](=O)[O-])c(-n2nnc3ccccc32)c([N+](=O)[O-])c1
EC50: 18.5 µM

CC(C)c1ccc(N2C(=O)NC(=O)/C(=C\C=C\c3ccco3)C2=O)cc1
EC50: 9.13 µM

Cn1c(/C=C/c2ccc([N+](=O)[O-])o2)nc2ccccc2c1=O
EC50: 6.93 µM

N#C/C(=C\c1ccc([N+](=O)[O-])o1)C(=O)Nc1ccc(F)cc1
EC50: 17.1 µM

CCOC(=O)c1ccc(-c2ccc(/C=N/NC(=O)CN(c3cccc(C)c3)S(C)(=O)=O)o2)cc1
EC50: 20 µM

CCCN1C/C(=C/c2ccc3c(c2)OCO3)C(=O)/C(=C/c2ccc3c(c2)OCO3)C1
EC50: 7.78 µM

COc1ccc2cc1Oc1ccc(cc1)CC1c3c(cc(OC)c4c3Oc3cc5c(cc3O4)CCNC5C2)CCN1C (centres undefined)
EC50: > 80 µM (inactive)

Cc1ccc(Nc2nc(-c3ccc(O)c(O)c3)cs2)nc1
EC50: 1.56 µM

COC(=O)C(=Cc1ccc(OCc2ccc([N+](=O)[O-])cc2)c(OC)c1)C(=O)OC
EC50: 5.43 µM

O=C(NCCc1ccccc1)c1coc(=O)c(Br)c1
EC50: 7.83 µM

O=C(COc1ccc2ccccc2c1)N1CCN(Cc2c[nH]c3ccccc23)CC1
EC50: 13.6 µM

O=C(c1cccs1)N(C(=O)c1cccs1)c1ccc(Br)cn1
EC50: 13.9 µM

Cc1ccc(CS(=O)(=O)c2ncc(Cl)c(C(=O)Nc3ccc(OC(F)F)cc3)n2)cc1
EC50: > 80 µM (inactive)

O=C(c1ccc(Br)cc1)C(CN1CCOCC1)c1ccccc1 (centres undefined)
EC50: 8.78 µM

COc1ccc(-c2nc(-c3ccccc3)nc(Cl)c2C#N)cc1
EC50: 13.5 µM

C/C(CCC12CC3CC(CC(C3)C1)C2)=N\NC(N)=S
EC50: 16.5 µM

CCOC(=O)c1sc(N(Cc2ccccc2)C(=O)CCl)nc1C
EC50: 7.96 µM

O=C(NCc1cccnc1)/C(=C/c1ccc(-c2cccc(Cl)c2)o1)S(=O)(=O)c1ccccc1
EC50: 10.4 µM

COc1ccccc1/C=N\Nc1cc(C)nc(-n2nc(C)cc2C)n1
EC50: 13.9 µM

CCOC(=O)c1c(CSC(=N)N)n(-c2ccc(C)cc2)c2cc(Br)c(OC(C)=O)cc12
EC50: > 80 µM (inactive)

O=C(N/N=C(\c1ccccc1)c1cccnc1)c1cccc(F)c1
EC50: 9.74 µM

CC1(C)CCSC(/C=C/c2ccccc2)=N1
EC50: > 80 µM (inactive)

COc1cc(/C=C(/C(=O)c2cccs2)c2nc3ccccc3[nH]2)cc(OC)c1O
EC50: 9.71 µM

CN(C)CC(CCC(CN(C)C)C(O)(c1ccccc1)c1ccccc1)C(O)(c1ccccc1)c1ccccc1 (centres undefined)
EC50: 7.9 µM

COc1ccccc1-c1cc(C(F)(F)F)nc(S(C)(=O)=O)n1
EC50: 9.21 µM

O=C(Oc1oc(-c2ccco2)nc1C=Nc1ccc(Cl)cc1)c1ccco1
EC50: 8.89 µM

CC(C)c1cccc(-c2ccc3c(c2)S(=O)(=O)c2cccc(C(=O)NCc4ccccc4Cl)c2C3=O)c1
EC50: 4.51 µM

O=C(Nc1nc2c(F)cc(F)cc2s1)c1ccccn1
EC50: 6.35 µM

Cc1cc(C(=O)CCl)c(C)n1CCc1ccc(Cl)cc1
EC50: 7.15 µM

Brc1ccccc1CN1CCN(Cc2c[nH]c3ccccc23)CC1
EC50: 7.72 µM

O=C(Nc1ccc(O)c2c(=O)cc(-c3cccc(Cl)c3)oc12)c1ccccc1Cl
EC50: inactive

COc1ccc(/C=C\c2nc(=O)c3ccccc3o2)cc1
EC50: 8.46 µM

COc1ccc(C(=O)N/N=C(\C)c2ccccn2)cc1OC
EC50: 2.82 µM

Cc1cc(C(=O)CCl)c(C)n1Cc1ccco1
EC50: 7.35 µM

CSc1nnc(NC(=O)c2nc(S(=O)(=O)Cc3ccc(C)cc3)ncc2Cl)s1
EC50: 13.6 µM

Cc1noc2ncnc(Sc3ccc(Br)cc3)c12
EC50: 9.31 µM

COc1cc(C(=O)Sc2ccc(Cl)cc2)cc(OC)c1OC
EC50: 15 µM

COc1ccc(CC2=CC(=O)c3ccccc3C2=O)cc1
EC50: 12.4 µM

CC(C)(C)N1CSC(=S)N(Cc2ccccc2)C1
EC50: 10.2 µM

COc1ccc(C(C[N+](=O)[O-])n2nc(C)cc2C)cc1 (centres undefined)
EC50: 9.15 µM

Cc1ccc(NC(=O)c2ccc([N+](=O)[O-])o2)cc1S(=O)(=O)N1CCOCC1
EC50: 11.8 µM

COc1cc(/C=C/C(=O)c2ccc3c(c2)OCCO3)cc(Br)c1OCC(=O)N(C)C
EC50: 7 µM

COc1ccc(O)c(/C=N/Nc2nc(Nc3ccccc3)nc(-n3nc(C)cc3C)n2)c1
EC50: 5.05 µM

Cc1ccccc1CS(=O)(=O)c1ncc(Cl)c(C(=O)Nc2ccc(F)cc2)n1
EC50: > 80 µM (inactive)

COc1ccc(C2=CC(=O)N(Nc3ccccc3)C2=O)cc1
EC50: 13.5 µM

O=C1NC(=O)N(c2ccccc2)C(=O)/C1=C/C=C/c1ccco1
EC50: 9.82 µM

Cc1ccc(-c2cc(-c3ccc(C)cc3)[n+](-c3ccccc3)c(-c3ccc(C)cc3)c2)cc1
EC50: 3.77 µM

CCN(CC)c1ccc(C=C2C(=O)NC(=S)NC2=O)cc1
EC50: 11.9 µM

Cc1ccc(NC(=O)Cn2ncc(Cl)c(Cl)c2=O)cc1S(=O)(=O)N1CCCCC1
EC50: 6.45 µM

O=C(N/N=C\c1cc2c(cc1Cl)OCO2)c1ccc(Br)s1
EC50: > 80 µM (inactive)

O=C(Nc1nccs1)c1cccc(N2C(=O)c3cccc4c([N+](=O)[O-])ccc(c34)C2=O)c1
EC50: 11.5 µM

O=C(Nc1ccc(C(F)(F)F)cc1)c1cc(-c2cccnc2)nc2ccc(Br)cc12
EC50: 8.66 µM

COc1ccc(NS(=O)(=O)c2ccc3ccccc3c2)c2ncccc12
EC50: 9.28 µM

CS(=O)(=O)c1nc(-c2ccccc2)cc(-c2ccccc2)c1C#N
EC50: 15.3 µM

Cc1cc(C(=O)CCl)c(C)n1CCc1ccccc1
EC50: 7.91 µM

CCCCC1CCC(C(=O)N(CCCC)c2c(N)n(CCCC)c(=O)[nH]c2=O)CC1 (centres undefined)
EC50: > 80 µM (inactive)

COc1ccccc1N1C(=O)C=C(Sc2nc(C)cc(C)n2)C1=O
EC50: > 80 µM (inactive)

CCNc1ccccc1CP(=O)(c1ccccc1)c1ccccc1O (centres undefined)
EC50: 15 µM

Oc1ccc2ccccc2c1N=Nc1ccccn1
EC50: 8.55 µM

Cn1c(SCC(=O)NCC2CCCO2)ncc(C(=O)Nc2ccc(Cl)cc2)c1=O (centres undefined)
EC50: 16 µM

C=CCSC(=C(C#N)C#N)c1cc2c([nH]1)CCCC2
EC50: > 80 µM (inactive)

CCCCCCCC(=O)Nc1ccc(C(=O)N/N=C/c2cccc([N+](=O)[O-])c2)cc1
EC50: inactive

CCCOc1ccc(N2C(=O)CC(N(O)c3ccccc3)C2=O)cc1 (centres undefined)
EC50: 7.23 µM

COc1cc(/C=C/C(=O)N2C(=O)c3cccc(N)c3C2=O)cc(OC)c1OC
EC50: > 80 µM (inactive)

CCOc1cc(/C=C2/C(=N)N3C=CSC3=NC2=O)ccc1OCCCOc1ccccc1C
EC50: inactive

O=c1c2c3c(sc2ncn1/N=C/c1ccc([N+](=O)[O-])o1)CCCC3
EC50: 7.01 µM

COc1ccc(-n2c(C)cc(C(=O)CCl)c2C)cc1
EC50: 7.13 µM

O=C(Nc1ccc(Cc2ccncc2)cc1)c1ccc([N+](=O)[O-])o1
EC50: 1.54 µM

COc1ccc(CCn2c(C)cc(C(=O)CCl)c2C)cc1OC
EC50: > 80 µM (inactive)

FC(F)(F)c1nnc2c(Sc3ccccc3)nc3ccc(Cl)cc3n12
EC50: 3.97 µM

Oc1cc(-c2cccnc2)cc2cccnc12
EC50: inactive

N#CC1=C(N)OC2=C(CC/C2=C\c2ccccc2)C1c1ccccc1 (centres undefined)
EC50: 6.51 µM

CCn1c(O)c(C2=c3ccccc3=NC2=O)c2cc(Br)ccc21
EC50: 15.4 µM

COc1cccc2sc(Nc3nnc(-c4cccs4)o3)nc12
EC50: 6.83 µM

Oc1ccc(CN2CCC(Cc3ccccc3)CC2)c2cccnc12
EC50: 5.4 µM

CC(C)N1CSC(=S)N(Cc2ccccc2)C1
EC50: 10.6 µM

O=C(/C=C/c1cccnc1)c1ccc(NC(=O)c2cccc(Br)c2)cc1
EC50: inactive

O=C(CSc1ccccn1)Nc1nonc1[N+](=O)[O-]
EC50: 19.1 µM

CC(=O)c1cccc(N=Cc2c(O)c3ccccc3oc2=O)c1
EC50: 9.66 µM

Cc1ccc(N2C(=O)NC(=O)/C(=C/C=C/c3ccco3)C2=O)cc1
EC50: 11.5 µM

O=C(/C=C1\NC2(CCCC2)Cc2ccccc21)C(=O)N/N=C/c1ccc(O)c(O)c1
EC50: 9.4 µM

N#CC(C#N)=C1C=CC=CN1/C(=C\c1ccccc1)C(=O)c1cccs1
EC50: > 80 µM (inactive)

O=C(/C(=C/c1ccc(Cl)cc1)c1nc2ccccc2[nH]1)c1cccs1
EC50: 4.6 µM

COc1cc(/C=C/[N+](=O)[O-])ccc1O
EC50: > 80 µM (inactive)

CN(C(=O)CSc1cc(C(=O)c2nccn2C)c2ccccc2n1)c1ccccc1
EC50: 7.96 µM

COCc1ccc(O)c2ncccc12
EC50: 15.1 µM

CC(=O)c1ccc(NC(=O)COC(=O)c2ccccc2N=Nc2ccc(N(C)C)cc2)cc1
EC50: > 80 µM (inactive)

COc1cc(/C=C2\C(=O)ON=C2c2ccc(Cl)cc2)ccc1O
EC50: 11.8 µM

COc1ccccc1-c1cc(C(F)(F)F)nc(S(=O)(=O)CCCC(=O)N2CCCCC2C)n1 (centres undefined)
EC50: 7.68 µM

CS(=O)(=O)c1nc(-c2ccc(Br)cc2)cc(-c2ccccc2)c1C#N
EC50: 5.12 µM
